Patent publication US11746133B2, “Cell penetrating peptides that inhibit IRF5 nuclear localization” (Rutgers, The State University of New Jersey, priority 2015, dated 2023)
Residues, ends and D or L forms follow the SMILES beside them.

Columns and labels:
Ramos B cells [1] = test: Propidium iodide staining to quantify cell death after inhibitor titration; format: cell-based, human; settings: 25 uM FITC-conjugated inhibitor, 2 hours
Procedure: Peptide inhibitor titration and uptake. Ramos B cells or THP1 cells were treated with 0.025, 0.25, 2.5, and 25 uM of FITC conjugated peptide inhibitors for 2 hours. Cells were washed, stained with propidium iodide, and immediately analyzed by flow cytometry for uptake of FITC peptide. For uptake experiments in PBMCs, cells were incubated with 10 uM of either mock, scrambled, N-term′ NLS, or C-term′ NLS FITC conjugated inhibitor for 2 hours. Cells were then washed and blocked as previously outlined, and subsequently stained with CD19-BV510 and CD14-PE (Biolegend Catalog #301806). Cells were fixed, stained with DRAQ5 nuclear dye and analyzed by imagestream for uptake of FITC peptide.
IRF5 Peptide Inhibitors readily enter the cell and have low associated toxicity. IRF5 peptide inhibitors were conjugated to FITC moieties to measure cellular uptake over a dose-dependent response. Ramos B cells were treated with increasing concentrations of FITC-conjugated inhibitor for 2 hours. Cells were washed and subsequently treated with propidium iodide to quantify cell death. […] Cell cycle was measured through propidium iodide incorporation, and quantified through flow cytometry. […] To determine if it would be possible to increase uptake of the inhibitor in B cells, uptake following incubation with 10 uM for 1 hour was measured.

Ramos B cells [2] = test: Tryphan blue staining for cell viability after 24 hours with inhibitor; format: cell-based, human; settings: 25 uM
Procedure: IRF5 Peptide Inhibitors readily enter the cell and have low associated toxicity. IRF5 peptide inhibitors were conjugated to FITC moieties to measure cellular uptake over a dose-dependent response. Ramos B cells were treated with increasing concentrations of FITC-conjugated inhibitor for 2 hours. Cells were washed and subsequently treated with propidium iodide to quantify cell death. While at the lower doses of 0.025 and 0.25 uM minimal uptake was seen, at 2.5 uM however, greater than 95% of cells were positive for the FITC-conjugated inhibitor (FIG. 1A). In addition, less than 3% of cells stained positive for propidium iodide, indicating low toxicity for the inhibitor at this dose. […] However, no significant increase in uptake was seen between 2.5 uM and 25 uM concentrations of inhibitor. To ensure no impact on cell viability from treatment with the inhibitors, Ramos B cells were treated with varying concentrations of inhibitor as used previously for the titration experiments for 24 hours, and tryphan blue staining was subsequently performed. […] Cell cycle was measured through propidium iodide incorporation, and quantified through flow cytometry. […] To determine if it would be possible to increase uptake of the inhibitor in B cells, uptake following incubation with 10 uM for 1 hour was measured.

IRF5 [3] = molecular target: T1, IRF5 (Homo sapiens, UniProt Q13568); test: Cell fractionation and Western blot of nuclear IRF5 in primary monocytes; format: cell-based; settings: isolated primary monocytes, inhibitor then R848 stimulation
T1 construct: endogenous in cells; host or cells: healthy-donor human PBMCs; CD14+ monocytes and CD19+ B cells
T1 sequence (Q13568 1-498): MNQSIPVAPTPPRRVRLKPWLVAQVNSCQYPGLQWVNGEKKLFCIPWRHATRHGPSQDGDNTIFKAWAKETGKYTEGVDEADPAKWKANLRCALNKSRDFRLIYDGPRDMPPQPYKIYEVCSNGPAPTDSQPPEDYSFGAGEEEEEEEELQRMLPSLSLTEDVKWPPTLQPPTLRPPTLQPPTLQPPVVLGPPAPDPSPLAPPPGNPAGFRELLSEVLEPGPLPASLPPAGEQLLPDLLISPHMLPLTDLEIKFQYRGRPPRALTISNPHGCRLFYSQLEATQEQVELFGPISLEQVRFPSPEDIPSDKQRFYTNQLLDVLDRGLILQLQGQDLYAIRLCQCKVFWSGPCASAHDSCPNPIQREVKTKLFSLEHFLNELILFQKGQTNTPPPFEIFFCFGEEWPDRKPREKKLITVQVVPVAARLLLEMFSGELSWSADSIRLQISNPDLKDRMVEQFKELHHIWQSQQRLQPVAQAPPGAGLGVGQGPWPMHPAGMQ
Procedure: (§1) FIGS. 2A-E. Peptides (non-FITC-conjugated) inhibit R848-induced IRF5 nuclear translocation. Healthy donor PBMCs were pre-incubated with peptide inhibitors for 1 hour and then stimulated for 2 hours with the Toll-like receptor agonist R848. IRF5 cellular localization was determined in CD14+ monocytes (FIG. 2A) and CD19+ B cells (FIG. 2B) by staining with intracellular IRF5 and DRAQ5. Similarity scores between IRF5 and DRAQ5 were determined on the Amnis Imagestream using IDEAS software. […] Lamin B1 serves as a nuclear protein loading control. […] IRF5 band intensity was normalized by Lamin B1, and relative fold change of IRF5 in nuclear portion was calculated over PBS treated sample. In FIGS. 2A-B and E, the bar on the left is mock (NT) and the bar on the right is R848.
Cell Fractionation. Cells were fractionated according to manufacturer's protocol (Cell Signaling, Cell fractionation kit, #9038). Following fractionation, lysates were sonicated and boiled. Nuclear fraction was analyzed by Western blot as follows: 30 μL of lysate was loaded onto a 3-8% NuPAGE® Novex® Tris-Acetate gel (Life Technologies, #EA0378BOX), and transferred onto a 0.45 μm nitrocellulose membrane (Bio-Rad Laboratories). […] Membrane was incubated with Clarity™ ECL Western Blotting Substrate (Bio-Rad Laboratories) and chemiluminescence detected with a ChemiDoc™ MP Imaging System (Bio-Rad Laboratories). […]

IRF5 [4] = molecular target: T1, IRF5; test: R848-induced IRF5 nuclear translocation in PBMCs by imaging flow cytometry; format: cell-based; settings: inhibitor 1 hour, then 500 ng/mL R848 2 hours, vs scrambled control
Procedure: as §1, with “control. Cells were pre-incubated with the indicated inhibitors for 1 hour and then stimulated with LPS for 2 hours.” for “control.”, “In FIGS. 2A-B and E, the bar on the left is mock (NT) and the bar on the right is R848.” left out
Imaging Flow Cytometry. […] Nuclear translocation was quantified in the Amnis IDEAS software suite. […] Finally, IRF5 nuclear translocation was determined through use of the similarity score feature contrasting IRF5 staining with DRAQ5 staining. […]
IRF5 peptide inhibitor blocks IRF5 nuclear translocation in both B cells and monocytes. […] As IRF5 has been implicated in the onset of autoimmune diseases in both monocytes and B cells, it was sought to be determined if IRF5 nuclear translocation could be inhibited in both cell populations following stimulation with the TLR7 agonist R848. […]

Compound | associated toxicity (propidium iodide) (Ramos B cells [1]) | viability by tryphan blue staining (Ramos B cells [2]) | levels of IRF5 in the nucleus (cell fractionation, Western blot) (IRF5 [3]) | IRF5 nuclear translocation in B cells (IRF5 [4]) | IRF5 nuclear translocation in monocytes (IRF5 [4])
CC[C@H](C)[C@H](NC(=O)[C@H](CCCCN)NC(=O)[C@@H](NC(=O)[C@H](CCC(N)=O)NC(=O)[C@H](CCCNC(=N)N)NC(=O)[C@@H](N)CC(=O)O)[C@@H](C)CC)C(=O)N[C@@H](Cc1c[nH]c2ccccc12)C(=O)N[C@@H](Cc1ccccc1)C(=O)N[C@@H](CCC(N)=O)C(=O)N[C@@H](CC(N)=O)C(=O)N[C@@H](CCCNC(=N)N)C(=O)N[C@@H](CCCNC(=N)N)C(=O)N[C@@H](CCSC)C(=O)N[C@@H](CCCCN)C(=O)N[C@@H](Cc1c[nH]c2ccccc12)C(=O)N[C@@H](CCCCN)C(=O)N[C@@H](CCCCN)C(=O)N1CCC[C@H]1C(=O)N[C@@H](CCCNC(=N)N)C(=O)N[C@@H](CCCNC(=N)N)C(=O)N[C@H](C(=O)N[C@@H](CCCNC(=N)N)C(=O)N[C@@H](CC(C)C)C(=O)N[C@@H](CCCCN)C(=O)O)C(C)C [IRF5 5′NLS] (H-DRQIKIWFQNRRMKWKKPRRVRLK-OH) | minimal associated toxicity |  |  |  | 
CC[C@H](C)[C@H](NC(=O)[C@H](CCCCN)NC(=O)[C@@H](NC(=O)[C@H](CCC(N)=O)NC(=O)[C@H](CCCNC(=N)N)NC(=O)[C@@H](N)CC(=O)O)[C@@H](C)CC)C(=O)N[C@@H](Cc1c[nH]c2ccccc12)C(=O)N[C@@H](Cc1ccccc1)C(=O)N[C@@H](CCC(N)=O)C(=O)N[C@@H](CC(N)=O)C(=O)N[C@@H](CCCNC(=N)N)C(=O)N[C@@H](CCCNC(=N)N)C(=O)N[C@@H](CCSC)C(=O)N[C@@H](CCCCN)C(=O)N[C@@H](Cc1c[nH]c2ccccc12)C(=O)N[C@@H](CCCCN)C(=O)N[C@@H](CCCCN)C(=O)N1CCC[C@H]1C(=O)N[C@@H](CCCCN)C(=O)N[C@@H](CCCNC(=N)N)C(=O)N[C@@H](CCCNC(=N)N)C(=O)N[C@@H](CCCNC(=N)N)C(=O)N[C@@H](CC(C)C)C(=O)N[C@H](C(=O)O)C(C)C [Scrambled 5′NLS] (H-DRQIKIWFQNRRMKWKKPKRRRLV-OH; N-terminus and C-terminus assumed) | minimal associated toxicity | decrease in viability |  |  | 
DRQIKIWFQNRRMKWKKPREKKLI [IRF5 3′NLS] |  |  | Reduced levels of IRF5 | no inhibition | only slightly reduced nuclear translocation
